Drawing on patent US12071425B2 (Genentech, Inc., priority 2018, dated 2024), this text covers toxicity in cells and IC50 for 21 compounds.

For series [1], the system named is cells. As to conditions: high levels of 4μ8C; cited from earlier work.
The target in series [2] is kinase domain of IRE1 alpha (His-tagged kinase dead construct KR, AA G547-L977, D688N) (Homo sapiens (Human), UniProt O75460, D688N). In words: IRE1α TR-FRET competition binding assay. As to conditions: competition with Kinase Tracer 236, 0.1 μM; one hour at room temperature. The method, boiled down:
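Compound displacement of an ATP-site fluorescent tracer (0.1 μM final) measured by TR-FRET after 1 h at room temperature. Protein, a His-tagged D688N kinase/RNase construct from Sf9 cells (0.006 μM final), was pre-bound 1 h at 4° C to Eu anti-His antibody (0.002 μM) in pH 7.5 HEPES buffer.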

Chain of kinase domain of IRE1 alpha (His-tagged kinase dead construct KR, AA G547-L977, D688N) (O75460 547-977 D688N): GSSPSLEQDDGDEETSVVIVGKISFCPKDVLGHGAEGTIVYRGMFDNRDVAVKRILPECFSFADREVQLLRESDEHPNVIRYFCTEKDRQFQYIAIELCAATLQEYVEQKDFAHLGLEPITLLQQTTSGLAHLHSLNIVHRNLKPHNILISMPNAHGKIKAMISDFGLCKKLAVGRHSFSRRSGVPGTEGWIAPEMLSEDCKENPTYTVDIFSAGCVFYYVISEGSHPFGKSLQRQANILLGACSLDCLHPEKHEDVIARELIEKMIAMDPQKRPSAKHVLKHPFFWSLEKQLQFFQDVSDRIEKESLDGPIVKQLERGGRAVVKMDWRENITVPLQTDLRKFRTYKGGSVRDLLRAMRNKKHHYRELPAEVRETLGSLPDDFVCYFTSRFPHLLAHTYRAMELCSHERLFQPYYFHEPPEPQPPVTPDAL

`Cc1cc(=O)oc2c(C=O)c(O)ccc12` [Compound 4μ8C]: the toxicity in cells result in series [1] is “no measurable toxicity”.

What is called IC50 is the concentration that gives 50% inhibition. Low readings indicate higher potency, high ones lower potency. Compound `O=S(=O)(Cc1c(F)cccc1Cl)Nc1c(F)cc(Oc2ncccc2-c2ccnc(N[C@@H]3CNC[C@@H](F)C3)n2)c(F)c1F` [Compound 367, 1-(2-Chloro-6-fluorophenyl)-N-(2,3,6-trifluoro-4-((3-(2-(((3S,5S)-5-fluoropiperidin-3-yl)amino)pyrimidin-4-yl)pyridin-2-yl)oxy)phenyl)methanesulfonamide] gave an IC50 in series [2] of 200 pM.

In turn, `O=S(=O)(Nc1c(F)cc(Oc2ncccc2-c2ccnc(N[C@@H]3CNC[C@@H](F)C3)n2)c(F)c1F)C1CCCCC1` [Compound 368, N-(2,3,6-Trifluoro-4-((3-(2-(((3S,5S)-5-fluoropiperidin-3-yl)amino)pyrimidin-4-yl)pyridin-2-yl)oxy)phenyl)cyclohexanesulfonamide] returned an IC50 in series [2] of 200 pM.

For the compound `O=S(=O)(Nc1c(F)cc(Oc2ncccc2-c2ccnc(N[C@@H]3CNC[C@@H](F)C3)n2)c(F)c1F)C1CCCC1` [Compound 369, N-(2,3,6-Trifluoro-4-((3-(2-(((3S,5S)-5-fluoropiperidin-3-yl)amino)pyrimidin-4-yl)pyridin-2-yl)oxy)phenyl)cyclopentanesulfonamide], the IC50 in series [2] is 1200 pM.

For `O=S(=O)(Cc1ccc(C(F)(F)F)cc1)Nc1c(F)cc(Oc2ncccc2-c2ccnc(N[C@@H]3CNC[C@@H](F)C3)n2)c(F)c1F` [Compound 370, N-(2,3,6-Trifluoro-4-((3-(2-(((3S,5S)-5-fluoropiperidin-3-yl)amino)pyrimidin-4-yl)pyridin-2-yl)oxy)phenyl)-1-(4-(trifluoromethyl)phenyl)methanesulfonamide], in series [2], the IC50 amounted to 2000 pM.

In turn, `O=S(=O)(Cc1ccc(C(F)F)cc1)Nc1c(F)cc(Oc2ncccc2-c2ccnc(N[C@@H]3CNC[C@@H](F)C3)n2)c(F)c1F` [Compound 371, 1-(4-(Difluoromethyl)phenyl)-N-(2,3,6-trifluoro-4-((3-(2-(((3S,5S)-5-fluoropiperidin-3-yl)amino)pyrimidin-4-yl)pyridin-2-yl)oxy)phenyl)methanesulfonamide] registered an IC50 in series [2] of 300 pM.

In series [2], `O=S(=O)(Cc1ccc(F)cc1)Nc1c(F)cc(Oc2ncccc2-c2ccnc(N[C@@H]3CNC[C@@H](F)C3)n2)c(F)c1F` [Compound 372, 1-(4-Fluorophenyl)-N-(2,3,6-trifluoro-4-((3-(2-(((3S,5S)-5-fluoropiperidin-3-yl)amino)pyrimidin-4-yl)pyridin-2-yl)oxy)phenyl)methanesulfonamide] yielded an IC50 of 200 pM.

In series [2], `O=S(=O)(Cc1ccccc1C(F)(F)F)Nc1c(F)cc(Oc2ncccc2-c2ccnc(N[C@@H]3CNC[C@@H](F)C3)n2)c(F)c1F` [Compound 373, N-(2,3,6-Trifluoro-4-((3-(2-(((3S,5S)-5-fluoropiperidin-3-yl)amino)pyrimidin-4-yl)pyridin-2-yl)oxy)phenyl)-1-(2-(trifluoromethyl)phenyl)methanesulfonamide] registered an IC50 of 300 pM.

`O=S(=O)(Cc1cccc(C(F)(F)F)c1)Nc1c(F)cc(Oc2ncccc2-c2ccnc(N[C@@H]3CNC[C@@H](F)C3)n2)c(F)c1F` [Compound 374, N-(2,3,6-Trifluoro-4-((3-(2-(((3S,5S)-5-fluoropiperidin-3-yl)amino)pyrimidin-4-yl)pyridin-2-yl)oxy)phenyl)-1-(3-(trifluoromethyl)phenyl)methanesulfonamide] gave an IC50 in series [2] of 200 pM.

`Cc1ccc(CS(=O)(=O)Nc2c(F)cc(Oc3ncccc3-c3ccnc(N[C@@H]4CNC[C@@H](F)C4)n3)c(F)c2F)cc1` [Compound 375, 1-p-Tolyl-N-(2,3,6-trifluoro-4-((3-(2-(((3S,5S)-5-fluoropiperidin-3-yl)amino)pyrimidin-4-yl)pyridin-2-yl)oxy)phenyl)methanesulfonamide]: the IC50 in series [2] was found to be 400 pM.

In series [2], `O=S(=O)(CC12CCC(CC1)C2)Nc1c(F)cc(Oc2ncccc2-c2ccnc(N[C@@H]3CNC[C@@H](F)C3)n2)c(F)c1F` [Compound 376, 1-(Bicyclo[2.2.1]heptan-1-yl)N-(2,3,6-trifluoro-4-((3-(2-(((3S,5S)-5-fluoropiperidin-3-yl)amino)pyrimidin-4-yl)pyridin-2-yl)oxy)phenyl)methanesulfonamide] displayed an IC50 of 200 pM.

The compound `O=S(=O)(CC12CCC(CC1)CC2)Nc1c(F)cc(Oc2ncccc2-c2ccnc(N[C@@H]3CNC[C@@H](F)C3)n2)c(F)c1F` [Compound 377, 1-(Bicyclo[2.2.2]octan-1-yl)-N-(2,3,6-trifluoro-4-((3-(2-(((3S,5S)-5-fluoropiperidin-3-yl)amino)pyrimidin-4-yl)pyridin-2-yl)oxy)phenyl)methanesulfonamide] came in with an IC50 in series [2] of 800 pM.

In the case of `O=S(=O)(Cc1cc(F)ccc1F)Nc1c(F)cc(Oc2ncccc2-c2ccnc(N[C@@H]3CNC[C@@H](F)C3)n2)c(F)c1F` [Compound 378, 1-(2,5-Difluorophenyl)-N-(2,3,6-trifluoro-4-((3-(2-(((3S,5S)-5-fluoropiperidin-3-yl)amino)pyrimidin-4-yl)pyridin-2-yl)oxy)phenyl)methanesulfonamide], in series [2], the IC50 worked out at 1100 pM.

Compound `CC(c1ccc(C#N)cc1)S(=O)(=O)Nc1ccc(Oc2ncccc2-c2ccnc(N[C@H]3CCCNC3)n2)c(F)c1F` (stereo partly drawn) [Compound 379, 1-(4-Cyanophenyl)-N-(2,3-difluoro-4-((3-(2-(((S)-piperidin-3-yl)amino)pyrimidin-4-yl)pyridin-2-yl)oxy)phenyl)ethane-1-sulfonamide] displayed an IC50 in series [2] of 300 pM.

With `COc1ccccc1CS(=O)(=O)Nc1ccc(Oc2ncccc2-c2ccnc(N[C@H]3CCCNC3)n2)c(F)c1F` [Compound 380, (S)—N-(2,3-Difluoro-4-((3-(2-(piperidin-3-ylamino)pyrimidin-4-yl)pyridin-2-yl)oxy)phenyl)-1-(2-methoxyphenyl)methanesulfonamide], in series [2], the IC50 turned out to be 900 pM.

In turn, `O=S(=O)(Nc1ccc(Oc2ncccc2-c2ccnc(N[C@H]3CCCNC3)n2)c(F)c1F)C1c2ccccc2-c2ccccc21` [Compound 381, (S)—N-(2,3-Difluoro-4-((3-(2-(piperidin-3-ylamino)pyrimidin-4-yl)pyridin-2-yl)oxy)phenyl)-9H-fluorene-9-sulfonamide] registered an IC50 in series [2] of 1000 pM.

In series [2], `Cc1cccc(CS(=O)(=O)Nc2c(F)cc(Oc3ncccc3-c3ccnc(N[C@@H]4CNC[C@@H](F)C4)n3)c(F)c2F)c1` [Compound 383, 1-m-Tolyl-N-(2,3,6-trifluoro-4-((3-(2-(((3S,5S)-5-fluoropiperidin-3-yl)amino)pyrimidin-4-yl)pyridin-2-yl)oxy)phenyl)methanesulfonamide] registered an IC50 of 700 pM.

`Cc1ccc(CS(=O)(=O)Nc2c(F)cc(Oc3ncccc3-c3ccnc(N[C@@H]4CNC[C@@H](F)C4)n3)c(F)c2F)c(F)c1` [Compound 384, 1-(2-Fluoro-4-methylphenyl)-N-(2,3,6-trifluoro-4-((3-(2-(((3S,5S)-5-fluoropiperidin-3-yl)amino)pyrimidin-4-yl)pyridin-2-yl)oxy)phenyl)methanesulfonamide] registered an IC50 in series [2] of 300 pM.

With `COc1cccc(CS(=O)(=O)Nc2c(F)cc(Oc3ncccc3-c3ccnc(N[C@@H]4CNC[C@@H](F)C4)n3)c(F)c2F)c1` [Compound 385, 1-(3-Methoxyphenyl)-N-(2,3,6-trifluoro-4-((3-(2-(((3S,5S)-5-fluoropiperidin-3-yl)amino)pyrimidin-4-yl)pyridin-2-yl)oxy)phenyl)methanesulfonamide], the IC50 in series [2] was determined as 200 pM.

As to `Cc1ccccc1CS(=O)(=O)Nc1c(F)cc(Oc2ncccc2-c2ccnc(N[C@@H]3CNC[C@@H](F)C3)n2)c(F)c1F` [Compound 386, 1-o-Tolyl-N-(2,3,6-trifluoro-4-((3-(2-(((3S,5S)-5-fluoropiperidin-3-yl)amino)pyrimidin-4-yl)pyridin-2-yl)oxy)phenyl)methanesulfonamide], the IC50 in series [2] was determined as 300 pM.

In the case of `O=S(=O)(Cc1cccnc1C(F)(F)F)Nc1c(F)cc(Oc2ncccc2-c2ccnc(N[C@@H]3CNC[C@@H](F)C3)n2)c(F)c1F` [Compound 389, N-(2,3,6-Trifluoro-4-((3-(2-(((3S,5S)-5-fluoropiperidin-3-yl)amino)pyrimidin-4-yl)pyridin-2-yl)oxy)phenyl)-1-(2-(trifluoromethyl)pyridin-3-yl)methanesulfonamide], the IC50 in series [2] came to 300 pM.
